According to PubChem BioAssay (NCI):
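All cell lines were grown in 96-well plates and treated with compound for 48 hours. GI50 marks 50% less growth. TGI: concentration producing complete growth inhibition.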

Assays:
Assay in all cases: growth of human tumour cells (NCI), 48 h
786-0 renal = system: 786-0 renal
A498 renal = system: A498 renal
A549 NSCLC = system: A549 NSCLC
ACHN renal = system: ACHN renal
BT-549 breast = system: BT-549 breast
CAKI-1 renal = system: CAKI-1 renal
CCRF-CEM leukemia = system: CCRF-CEM leukemia
COLO 205 colon = system: COLO 205 colon
DU-145 prostate = system: DU-145 prostate
EKVX NSCLC = system: EKVX NSCLC
HCC-2998 colon = system: HCC-2998 colon
HCT-116 colon = system: HCT-116 colon
HCT-15 colon = system: HCT-15 colon
HOP-62 NSCLC = system: HOP-62 NSCLC
HS 578T breast = system: HS 578T breast
HT29 colon = system: HT29 colon
IGROV1 ovarian = system: IGROV1 ovarian
K-562 leukemia = system: K-562 leukemia
KM12 colon = system: KM12 colon
LOX IMVI melanoma = system: LOX IMVI melanoma
M14 melanoma = system: M14 melanoma
MALME-3M melanoma = system: MALME-3M melanoma
MCF7 breast = system: MCF7 breast
MDA-MB-231 breast = system: MDA-MB-231 breast
MDA-MB-435 = system: MDA-MB-435
MOLT-4 leukemia = system: MOLT-4 leukemia
NCI-H226 lung = system: NCI-H226 lung
NCI-H23 lung = system: NCI-H23 lung
NCI-H460 lung = system: NCI-H460 lung
NCI-H522 lung = system: NCI-H522 lung
NCI/ADR-RES ovarian = system: NCI/ADR-RES ovarian
OVCAR-4 ovarian = system: OVCAR-4 ovarian
OVCAR-5 ovarian = system: OVCAR-5 ovarian
OVCAR-8 ovarian = system: OVCAR-8 ovarian
PC-3 prostate = system: PC-3 prostate
RPMI-8226 leukemia = system: RPMI-8226 leukemia
RXF 393 renal = system: RXF 393 renal
SF-268 CNS = system: SF-268 CNS
SF-295 CNS = system: SF-295 CNS
SF-539 CNS = system: SF-539 CNS
SK-MEL-28 melanoma = system: SK-MEL-28 melanoma
SK-MEL-5 melanoma = system: SK-MEL-5 melanoma
SK-OV-3 ovarian = system: SK-OV-3 ovarian
SN12C renal = system: SN12C renal
SNB-19 CNS = system: SNB-19 CNS
SNB-75 CNS = system: SNB-75 CNS
SR leukemia = system: SR leukemia
SW-620 colon = system: SW-620 colon
T-47D breast = system: T-47D breast
TK-10 renal = system: TK-10 renal
U251 CNS = system: U251 CNS
UACC-257 melanoma = system: UACC-257 melanoma
UACC-62 melanoma = system: UACC-62 melanoma
UO-31 renal = system: UO-31 renal

C#C[C@]1(O)CC[C@H]2[C@@H]3CC=C4c5sc(N6CCN(C)CC6)nc5CC[C@]4(C)[C@H]3CC[C@@]21C
GI50 (786-0 renal): 1.7 µM | TGI (786-0 renal): 3.15 µM | GI50 (A498 renal): 4.25 µM | TGI (A498 renal): 16.9 µM | GI50 (A549 NSCLC): 1.83 µM | TGI (A549 NSCLC): 3.39 µM | GI50 (ACHN renal): 1.79 µM | TGI (ACHN renal): 3.25 µM | GI50 (BT-549 breast): 1.9 µM | TGI (BT-549 breast): 3.95 µM | GI50 (CAKI-1 renal): 1.56 µM | TGI (CAKI-1 renal): 3.08 µM | GI50 (CCRF-CEM leukemia): 2.23 µM | TGI (CCRF-CEM leukemia): 4.74 µM | GI50 (COLO 205 colon): 1.98 µM | TGI (COLO 205 colon): 3.83 µM | GI50 (DU-145 prostate): 2.23 µM | TGI (DU-145 prostate): 5.13 µM | GI50 (EKVX NSCLC): 1.84 µM | TGI (EKVX NSCLC): 3.83 µM | GI50 (HCC-2998 colon): 2.06 µM | TGI (HCC-2998 colon): 4.35 µM | GI50 (HCT-116 colon): 1.78 µM | TGI (HCT-116 colon): 3.38 µM | GI50 (HCT-15 colon): 1.25 µM | TGI (HCT-15 colon): 2.93 µM | GI50 (HOP-62 NSCLC): 1.71 µM | TGI (HOP-62 NSCLC): 3.27 µM | GI50 (HS 578T breast): 2.42 µM | TGI (HS 578T breast): 8.44 µM | GI50 (HT29 colon): 1.76 µM | TGI (HT29 colon): 4.18 µM | GI50 (IGROV1 ovarian): 1.87 µM | TGI (IGROV1 ovarian): 3.62 µM | GI50 (K-562 leukemia): 1.34 µM | TGI (K-562 leukemia): 4.5 µM | GI50 (KM12 colon): 1.92 µM | TGI (KM12 colon): 4.08 µM | GI50 (LOX IMVI melanoma): 1.7 µM | TGI (LOX IMVI melanoma): 3.33 µM | GI50 (M14 melanoma): 1.54 µM | TGI (M14 melanoma): 2.97 µM | GI50 (MALME-3M melanoma): 1.76 µM | TGI (MALME-3M melanoma): 3.28 µM | GI50 (MCF7 breast): 1.83 µM | TGI (MCF7 breast): 3.8 µM | GI50 (MDA-MB-231 breast): 1.93 µM | TGI (MDA-MB-231 breast): 3.73 µM | GI50 (MDA-MB-435): 1.16 µM | TGI (MDA-MB-435): 2.53 µM | GI50 (MOLT-4 leukemia): 1.89 µM | TGI (MOLT-4 leukemia): 4.66 µM | GI50 (NCI-H226 lung): 9.83 µM | TGI (NCI-H226 lung): 28.8 µM | GI50 (NCI-H23 lung): 1.76 µM | TGI (NCI-H23 lung): 3.59 µM | GI50 (NCI-H460 lung): 1.99 µM | TGI (NCI-H460 lung): 3.8 µM | GI50 (NCI-H522 lung): 1.48 µM | TGI (NCI-H522 lung): 3.3 µM | GI50 (NCI/ADR-RES ovarian): 2.18 µM | TGI (NCI/ADR-RES ovarian): 5.71 µM | GI50 (OVCAR-4 ovarian): 1.94 µM | TGI (OVCAR-4 ovarian): 4.02 µM | GI50 (OVCAR-5 ovarian): 1.82 µM | TGI (OVCAR-5 ovarian): 3.53 µM | GI50 (OVCAR-8 ovarian): 1.81 µM | TGI (OVCAR-8 ovarian): 3.41 µM | GI50 (PC-3 prostate): 1.61 µM | TGI (PC-3 prostate): 3.07 µM | GI50 (RPMI-8226 leukemia): 1.6 µM | TGI (RPMI-8226 leukemia): 4.16 µM | GI50 (RXF 393 renal): 1.42 µM | TGI (RXF 393 renal): 3.05 µM | GI50 (SF-268 CNS): 2.01 µM | TGI (SF-268 CNS): 4.31 µM | GI50 (SF-295 CNS): 1.87 µM | TGI (SF-295 CNS): 3.96 µM | GI50 (SF-539 CNS): 1.45 µM | TGI (SF-539 CNS): 2.9 µM | GI50 (SK-MEL-28 melanoma): 1.68 µM | TGI (SK-MEL-28 melanoma): 3.19 µM | GI50 (SK-MEL-5 melanoma): 1.74 µM | TGI (SK-MEL-5 melanoma): 3.2 µM | GI50 (SK-OV-3 ovarian): 1.68 µM | TGI (SK-OV-3 ovarian): 3.18 µM | GI50 (SN12C renal): 1.77 µM | TGI (SN12C renal): 3.43 µM | GI50 (SNB-19 CNS): 1.81 µM | TGI (SNB-19 CNS): 3.75 µM | GI50 (SNB-75 CNS): 1.69 µM | TGI (SNB-75 CNS): 3.87 µM | GI50 (SR leukemia): 1.56 µM | TGI (SR leukemia): 5.39 µM | GI50 (SW-620 colon): 1.81 µM | TGI (SW-620 colon): 3.45 µM | GI50 (T-47D breast): 12.1 µM | TGI (T-47D breast): 30.1 µM | GI50 (TK-10 renal): 2.36 µM | TGI (TK-10 renal): 4.55 µM | GI50 (U251 CNS): 1.51 µM | TGI (U251 CNS): 2.87 µM | GI50 (UACC-257 melanoma): 1.77 µM | TGI (UACC-257 melanoma): 3.27 µM | GI50 (UACC-62 melanoma): 1.79 µM | TGI (UACC-62 melanoma): 3.42 µM | GI50 (UO-31 renal): 1.74 µM | TGI (UO-31 renal): 3.17 µM
